Key:
[1] = tested on: Uncinula necator; assay: Grape Powdery Mildew fungicidal activity (UNCINE); assay type: in vivo; conditions: Erysiphe necator, 24 h, 1 Day Protectant, read-out: Disease Control UNCINE 1DP
Description: Technical grades of materials were dissolved in acetone, which were then mixed with nine volumes of water containing 110 ppm Triton X-100. The fungicide solutions were applied onto wheat seedlings using an automated booth sprayer to run-off. All sprayed plants were allowed to air dry prior to further handling. All fungicides were evaluated using the aforementioned method for their activity vs. all target diseases. Wheat leaf blotch and brown rust activity were also evaluated using track spray applications, in which case the fungicides were formulated as EC formulations, containing 0.1% Trycol 5941 in the spray solutions. Wheat plants (variety Yuma) were grown from seed in a greenhouse in 50% mineral soil/50% soil-less Metro mix until the first leaf was fully emerged, with 7-10 seedlings per pot. These plants were inoculated with an aqueous spore suspension of Septoria tritici either prior to or after fungicide treatments. After inoculation the plants were kept in 100% relative humidity (one day in a dark dew chamber followed by two to three days in a lighted dew chamber at 20° C.) to permit spores to germinate and infect the leaf. The plants were then transferred to a greenhouse set at 20° C. for disease to develop. When disease symptoms were fully expressed on the 1st leaves of untreated plants, infection levels were assessed on a scale of 0 to 100 percent disease severity. Percent disease control was calculated using the ratio of disease severity on treated plants relative to untreated plants. Evaluation of Fungicidal Activity: Grape Powdery Mildew (Uncinula necator; Bayer code […]) Grape seedlings (variety Carignane) were grown in soil-less Metro mix, with one plant per pot, and used in the test when approximately one month old. Plants were inoculated 24 hr after fungicide treatment by shaking spores from infected leaves over test plants. Plants were maintained in a greenhouse set at 20° C. until disease was fully developed. Fungicide formulation, application and disease assessment on the sprayed leaves followed the procedures as described in the Example A.

[2] = tested on: Rhyncosporium secalis; assay: Barley Scald fungicidal activity (RHYNSE); assay type: in vivo; conditions: Hordeum vulgare, 24 h, 1 Day Protectant, read-out: Disease Control RHYNSE 1DP
Description: Technical grades of materials were dissolved in acetone, which were then mixed with nine volumes of water containing 110 ppm Triton X-100. The fungicide solutions were applied onto wheat seedlings using an automated booth sprayer to run-off. All sprayed plants were allowed to air dry prior to further handling. All fungicides were evaluated using the aforementioned method for their activity vs. all target diseases. Wheat leaf blotch and brown rust activity were also evaluated using track spray applications, in which case the fungicides were formulated as EC formulations, containing 0.1% Trycol 5941 in the spray solutions. Wheat plants (variety Yuma) were grown from seed in a greenhouse in 50% mineral soil/50% soil-less Metro mix until the first leaf was fully emerged, with 7-10 seedlings per pot. These plants were inoculated with an aqueous spore suspension of Septoria tritici either prior to or after fungicide treatments. After inoculation the plants were kept in 100% relative humidity (one day in a dark dew chamber followed by two to three days in a lighted dew chamber at 20° C.) to permit spores to germinate and infect the leaf. The plants were then transferred to a greenhouse set at 20° C. for disease to develop. When disease symptoms were fully expressed on the 1st leaves of untreated plants, infection levels were assessed on a scale of 0 to 100 percent disease severity. Percent disease control was calculated using the ratio of disease severity on treated plants relative to untreated plants. Evaluation of Fungicidal Activity: Barley Scald (Rhyncosporium secalis; Bayer Code […]) Barley seedlings (variety Harrington) were propagated in soil-less Metro mix, with each pot having 8 to 12 plants, and used in the test when first leaf was fully emerged. Test plants were inoculated by an aqueous spore suspension of Rhyncosporium secalis 24 hr after fungicide treatments. After inoculation the plants were kept in a dew room at 20° C. with 100% relative humidity for 48 hr. The plants were then transferred to a greenhouse set at 20° C. for disease to develop. Fungicide formulation, application and disease assessment on the sprayed leaves followed the procedures as described in the Example A.

[3] = tested on: Blumeria graminis f. sp. tritici; assay: Wheat Powdery Mildew fungicidal activity (ERYSGT); assay type: in vivo; conditions: 100 ppm, 1 Day Protectant
Description: Technical grades of materials were dissolved in acetone, which were then mixed with nine volumes of water containing 110 ppm Triton X-100. The fungicide solutions were applied onto wheat seedlings using an automated booth sprayer to run-off. All sprayed plants were allowed to air dry prior to further handling. All fungicides were evaluated using the aforementioned method for their activity vs. all target diseases. Wheat leaf blotch and brown rust activity were also evaluated using track spray applications, in which case the fungicides were formulated as EC formulations, containing 0.1% Trycol 5941 in the spray solutions. Wheat plants (variety Yuma) were grown from seed in a greenhouse in 50% mineral soil/50% soil-less Metro mix until the first leaf was fully emerged, with 7-10 seedlings per pot. These plants were inoculated with an aqueous spore suspension of Septoria tritici either prior to or after fungicide treatments. After inoculation the plants were kept in 100% relative humidity (one day in a dark dew chamber followed by two to three days in a lighted dew chamber at 20° C.) to permit spores to germinate and infect the leaf. The plants were then transferred to a greenhouse set at 20° C. for disease to develop. When disease symptoms were fully expressed on the 1st leaves of untreated plants, infection levels were assessed on a scale of 0 to 100 percent disease severity. Percent disease control was calculated using the ratio of disease severity on treated plants relative to untreated plants. Evaluation of Fungicidal Activity: Wheat Powdery Mildew (Blumeria graminis f. sp. tritici; Synonym: Erysiphe graminis f. sp. tritici; Bayer Code […]) Wheat plants (variety Yuma) were grown from seed in a greenhouse in 50% mineral soil/50% soil-less Metro mix until the first leaf was fully emerged, with 7-10 seedlings per pot. These plants were inoculated by dusting with infected stock plants 24 hr after fungicide treatments. After inoculation the plants were kept in a greenhouse set at 20° C. for disease to develop. […]

[4] = tested on: Phakopsora pachyrhizi; assay: Asian Soybean Rust fungicidal activity (PHAKPA); assay type: in vivo; conditions: 25 ppm; for Disease Control PHAKPA 1DP: 1 Day Protectant; for Disease Control PHAKPA 3DC: 3 Day Curative
Description: Evaluation of Fungicidal Activity: Asian Soybean Rust (Phakopsora pachyrhizi; Bayer Code PHAKPA)
Technical grades of materials were dissolved in acetone, which were then mixed with nine volumes of water containing 0.011% Tween 20. The fungicide solutions were applied onto soybean seedlings using an automated booth sprayer to run-off. All sprayed plants were allowed to air dry prior to further handling.
Soybean plants (variety Williams 82) were grown in soil-less Metro mix, with one plant per pot. Two weeks old seedlings were used for testing. Plants were inoculated either 3 days prior to or 1 day after fungicide treatments. Plants were incubated for 24 h in a dark dew room at 22° C. and 100% RH then transferred to a growth room at 23° C. for disease to develop. Disease severity was assessed on the sprayed leaves.

Structure (SMILES) | pest or weed control at 100 ppm [1] [%] | melting point [°C] | pest or weed control at 100 ppm [2] [%] | Disease Control ERYSGT 1DP [3] | Disease Control PHAKPA 1DP [4] | Disease Control PHAKPA 3DC [4]
COc1ccnc(C(=O)N[C@H]2COC[C@H](Cc3ccc(F)cc3)[C@@H](OCC(C)C)[C@H](C)OC2=O)c1OC(C)=O [Compound F60] | 80 to 100 |  |  |  |  | 
COc1ccnc(C(=O)N[C@H]2COC[C@H](Cc3ccc(Cl)cc3Cl)[C@@H](OC(=O)C(C)C)[C@H](C)OC2=O)c1OC(C)=O [Compound F73] |  | 93 to 97 | 80 to 100 |  |  | 
COc1ccnc(C(=O)N[C@H]2COC[C@H](Cc3ccc(C)cc3)[C@@H](OCC(C)C)[C@H](C)OC2=O)c1OC(C)=O [Compound F80] | 0 to 80 |  |  | A (80-100) |  | 
COc1ccnc(C(=O)N[C@H]2COC[C@H](CCc3ccccc3)[C@@H](OCC(C)C)[C@H](C)OC2=O)c1OCOC(C)=O [Compound F82] |  |  | 80 to 100 |  |  | 
COc1ccnc(C(=O)N[C@H]2COC[C@H](Cc3cccc4ccccc34)[C@@H](OC(=O)C(C)C)[C@H](C)OC2=O)c1OCOC(C)=O [Compound F83, (3S,6S,7R,8S)-3-(3-(acetoxymethoxy)-4-methoxypicolin-amido)-6-methyl-8-(naphthalen-1-ylmethyl)-4-oxo-1,5-dioxonan-7-yl isobutyrate] | 0 to 80 | 58 to 64 | 80 to 100 |  |  | 
COc1ccnc(C(=O)N[C@H]2COC[C@H](Cc3ccc(F)cc3)[C@@H](OCC(C)C)[C@H](C)OC2=O)c1OCOC(C)=O [Compound F96] | 80 to 100 |  |  | A (80-100) |  | 
COc1ccnc(C(=O)N[C@H]2COC[C@H](CC(F)(F)F)[C@@H](OC3CCCC3)[C@H](C)OC2=O)c1OCOC(C)=O [Compound F105] |  |  | 80 to 100 |  |  | 
COc1ccnc(C(=O)N[C@H]2COC[C@H](CCC(C)C)[C@@H](OCCCC(F)(F)F)[C@H](C)OC2=O)c1OCOC(C)=O [Compound F107] | 0 to 80 |  | 80 to 100 |  | A (80-100) | B (More than 0-Less than 80)
COc1ccnc(C(=O)N[C@H]2COC[C@H](CCC(C)C)[C@@H](OC(=O)C3CC3)[C@H](C)OC2=O)c1OCOC(C)=O [Compound F108] | 80 to 100 |  | 80 to 100 |  | A (80-100) | A (80-100)
COc1ccnc(C(=O)N[C@H]2COC[C@H](Cc3ccc(Cl)cc3Cl)[C@@H](OC(=O)C(C)C)[C@H](C)OC2=O)c1OCOC(C)=O [Compound F110] |  | 62 to 66 | 80 to 100 |  |  | 
COc1ccnc(C(=O)N[C@H]2COC[C@H](CC3CCCC3)[C@@H](OC(=O)C(C)C)[C@H](C)OC2=O)c1OCOC(C)=O [Compound F114] | 80 to 100 | 41 to 45 | 80 to 100 |  | A (80-100) | B (More than 0-Less than 80)
COc1ccnc(C(=O)N[C@H]2COC[C@H](Cc3ccc(C)cc3)[C@@H](OCC(C)C)[C@H](C)OC2=O)c1OCOC(C)=O [Compound F117] | 80 to 100 |  |  | A (80-100) |  | 
CCCCCO[C@@H]1[C@@H](Cc2ccc(Cl)cc2Cl)COC[C@H](NC(=O)c2nccc(OC)c2OCOC(=O)COCC)C(=O)O[C@H]1C [Compound F122] | 80 to 100 |  | 80 to 100 |  | B (More than 0-Less than 80) | 
CCCCCO[C@@H]1[C@@H](Cc2ccc(Cl)cc2Cl)COC[C@H](NC(=O)c2nccc(OC)c2OC(=O)CCOC)C(=O)O[C@H]1C [Compound F123] | 80 to 100 | 96 to 99 | 80 to 100 |  | B (More than 0-Less than 80) | 
